These results are taken from patent US20100204203A1, “Chemical Compounds 637: Pyridopyrimidinediones as PDE4 Inhibitors” (priority 2007, published 2010).

recombinant Human Phosphodiesterase B2 (PDE4B2), sequence (Q07343 1-564 isoform Q07343-2): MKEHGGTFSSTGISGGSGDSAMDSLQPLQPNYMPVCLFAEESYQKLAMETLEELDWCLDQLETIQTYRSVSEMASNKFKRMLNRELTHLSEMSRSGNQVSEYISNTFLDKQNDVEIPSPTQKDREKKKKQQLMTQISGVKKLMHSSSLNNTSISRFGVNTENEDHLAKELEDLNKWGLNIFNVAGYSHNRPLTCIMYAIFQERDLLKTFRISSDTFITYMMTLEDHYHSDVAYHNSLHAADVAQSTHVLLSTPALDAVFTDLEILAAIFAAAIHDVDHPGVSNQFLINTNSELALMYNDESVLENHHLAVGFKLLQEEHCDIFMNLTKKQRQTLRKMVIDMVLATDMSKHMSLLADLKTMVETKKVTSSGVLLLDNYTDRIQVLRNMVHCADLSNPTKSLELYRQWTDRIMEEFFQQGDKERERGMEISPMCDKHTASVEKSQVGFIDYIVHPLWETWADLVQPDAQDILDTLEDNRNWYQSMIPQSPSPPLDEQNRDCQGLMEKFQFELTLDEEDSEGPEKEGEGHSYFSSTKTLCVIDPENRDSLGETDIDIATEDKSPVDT

The test concerns the target recombinant Human Phosphodiesterase B2 (PDE4B2) (Homo sapiens, UniProt Q07343). The test can be described thus: Human Phosphodiesterase B2 Radiometric Assay (yttrium silicate SPA beads, [3H]cyclic AMP). The test is classed as biochemical. As to conditions: recombinant human PDE4B2, radiometric SPA assay, 8 nM [3H]cyclic AMP; read-out: PDE4B2 pIC50 (converted). The gist of the method: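 Compounds were preincubated 30 min at 30 °C with 0.1 mg/mL PDE4B2 in 50 mM HEPES pH 7.5, 8.3 mM MgCl2, 1.7 mM EGTA, 0.01% Brij 35. Then 8 nM [3H]cAMP was added for 20 min, stopped with yttrium silicate SPA beads plus 18 mM ZnSO4 capturing product 5′AMP; pIC50 by curve fitting.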
With `COc1ccc(CN[C@H]2CC[C@@H](n3c(=O)c4cc(F)cnc4n(-c4cccc(-c5ccc(CN6CCCOCC6)cc5)c4)c3=O)CC2)cc1Cl` [Example 258, 3-{cis-4-[(3-Chloro-4-methoxybenzyl)amino]cyclohexyl}-6-fluoro-1-[4′-(1,4-oxazepan-4-ylmethyl)biphenyl-3-yl]pyrido[2,3-d]pyrimidine-2,4(1H,3H)-dione], the IC50 is 2 nM.
In the case of `O=c1c2cc(F)cnc2n(-c2cccc(-c3ccc(O)cc3CN3CCOCC3)c2)c(=O)n1[C@H]1CC[C@@H](NCc2cccc(F)c2O)CC1` [Example 280, 6-fluoro-3-{cis-4-[(3-fluoro-2-hydroxybenzyl)amino]cyclohexyl}-1-[4′-hydroxy-2′-(morpholin-4-ylmethyl)biphenyl-3-yl]pyrido[2,3-d]pyrimidine-2,4(1H,3H)-dione], the IC50 was 0.794 nM.
Take `CC(C)N1CCN(Cc2ccc(-c3cccc(-n4c(=O)n([C@H]5CC[C@@H](NCc6cnn(C)c6-c6ccccc6)CC5)c(=O)c5cc(F)cnc54)c3)cc2)CC1` [Example 264, 6-fluoro-1-{4′-[(4-isopropyl-piperazin-1-yl)methyl]biphenyl-3-yl}-3-(cis-4-{[(1-methyl-5-phenyl-1H-pyrazol-4-yl)methyl]amino}cyclohexyl)pyrido[2,3-d] pyrimidine-2,4(1H,3H)-dione]: the IC50 is 2.51 nM.
As to `CSc1ncc(-c2cccc(-n3c(=O)n([C@H]4CC[C@@H](NC(=O)c5cn6cc(F)ccc6n5)CC4)c(=O)c4cc(F)cnc43)c2)cn1` [Example 30, 6-fluoro-N-{cis-4-[6-fluoro-1-{3-[2-(methylthio)pyrimidin-5-yl]phenyl}-2,4-dioxo-1,4-dihydropyrido[2,3-d]pyrimidin-3(2H)-yl]cyclohexyl}imidazo[1,2-a]pyridine-2-carboxamide.], the IC50 is 0.0158 nM.
For `CN1CCCN(Cc2ccc(-c3cccc(-n4c(=O)n([C@H]5CC[C@@H](NC(=O)[C@@H](N)Cc6ccccc6)CC5)c(=O)c5cc(F)cnc54)c3)cc2)CC1` [Example 312, N-{cis-4-[6-fluoro-1-{4′-[(4-methyl-1,4-diazepan-1-yl)methyl]biphenyl-3-yl}-2,4-dioxo-1,4-dihydropyrido[2,3-d]pyrimidin-3(2H)-yl]cyclohexyl}-L-phenylalaninamide] the value was 0.2 nM.
As for `Cc1cccc2nc(C(=O)N[C@H]3CC[C@@H](n4c(=O)c5cc(F)cnc5n(-c5cccc(-c6ccc(CN7CCCN(C)CC7)cc6)c5)c4=O)CC3)cn12` [Example 220, N-{cis-4-[6-fluoro-1-{4′-[(4-methyl-1,4-diazepan-1-yl)methyl]biphenyl-3-yl}-2,4-dioxo-1,4-dihydropyrido[2,3-d]pyrimidin-3(2H)-yl]cyclohexyl}-5-methylimidazo[1,2-a]pyridine-2-carboxamide], the IC50 is 0.00794 nM.
`CN(C)Cc1ccc(-c2cccc(-n3c(=O)n([C@H]4CC[C@@H](NC(=O)c5cn6cc(F)ccc6n5)CC4)c(=O)c4cc(F)cnc43)c2)cc1` [Example 12, N-{cis-4-[1-{4′-[(dimethylamino)methyl]biphenyl-3-yl}-6-fluoro-2,4-dioxo-1,4-dihydropyrido[2,3-d]pyrimidin-3(2H)-yl]cyclohexyl}-6-fluoroimidazo[1,2-a]pyridine-2-carboxamide]: the IC50 is 0.1 nM.
Regarding `CN(C)C1(C(=O)N[C@H]2CC[C@@H](n3c(=O)c4cc(F)cnc4n(-c4cccc(-c5ccccc5)c4)c3=O)CC2)CC1` [Example 53, N-[cis-4-(1-biphenyl-3-yl-6-fluoro-2,4-dioxo-1,4-dihydropyrido[2,3-d]pyrimidin-3(2H)-yl)cyclohexyl]-1-(dimethylamino)cyclopropanecarboxamide], the IC50 was 0.0158 nM.
Turning to `N[C@H]1CC[C@@H](n2c(=O)c3cc(F)cnc3n(-c3cccc(-c4ccc(O)cc4CN4CCNC(=O)CC4)c3)c2=O)CC1` [Example 369, 3-(cis-4-aminocyclohexyl)-6-fluoro-1-{4′-hydroxy-2′-[(5-oxo-1,4-diazepan-1-yl)methyl]biphenyl-3-yl}pyrido[2,3-d]pyrimidine-2,4(1H,3H)-dione], the IC50 is 6.31 nM.
Then `CN(C)C1(C(=O)N[C@H]2CC[C@@H](n3c(=O)c4cc(F)cnc4n(-c4cccc(-c5ccc(CN6CCN(C7CCCC7)CC6)cc5)c4)c3=O)CC2)CC1` [Example 210, N-{cis-4-[1-{4′-[(4-cyclopentylpiperazin-1-yl)methyl]biphenyl-3-yl}-6-fluoro-2,4-dioxo-1,4-dihydropyrido[2,3-d]pyrimidin-3(2H)-yl]cyclohexyl}-1-(dimethylamino)cyclopropane-carboxamide], with 0.02 nM; and `COc1ccc(CN[C@H]2CC[C@@H](n3c(=O)c4cc(F)cnc4n(-c4cccc(-c5ccc(CN6CCN(C(C)C)CC6)cc5)c4)c3=O)CC2)cc1Cl` [Example 260, 3-{cis-4-[(3-chloro-4-methoxybenzyl)amino]cyclohexyl}-6-fluoro-1-{4′-[(4-isopropyl-piperazin-1-yl)methyl]biphenyl-3-yl}pyrido[2,3-d]pyrimidine-2,4(1H,3H)-dione], with 0.501 nM; and `Cc1cc(C(=O)N[C@H]2CC[C@@H](n3c(=O)c4cc(F)cnc4n(-c4cccc(-c5ccc(CN6CCN(c7ccccn7)CC6)cc5)c4)c3=O)CC2)nn1C` [Example 214, N-{cis-4-[6-fluoro-2,4-dioxo-1-{4′-[(4-pyridin-2-ylpiperazin-1-yl)methyl]biphenyl-3-yl}-1,4-dihydropyrido[2,3-d]pyrimidin-3(2H)-yl]cyclohexyl}-1,5-dimethyl-1H-pyrazole-3-carboxamide], with 0.0251 nM.
For `CCOCCNCc1ccc(-c2cccc(-n3c(=O)n([C@H]4CC[C@@H](NC(=O)c5cn6c(n5)CCCC6)CC4)c(=O)c4cc(F)cnc43)c2)cc1` [Example 123, N-{cis-4-[1-(4′-{[(2-ethoxyethyl)amino]methyl}biphenyl-3-yl)-6-fluoro-2,4-dioxo-1,4-dihydropyrido[2,3-d]pyrimidin-3(2H)-yl]cyclohexyl}-5,6,7,8-tetrahydroimidazo[1,2-a]pyridine-2-carboxamide] the value was 0.0398 nM.
`CCN(CC)CCOc1ccc(CN(C(C)=O)[C@H]2CC[C@@H](n3c(=O)c4cc(F)cnc4n(-c4cccc(-c5ccc(CN6CCN(C(C)C)CC6)cc5)c4)c3=O)CC2)cc1` [Example 340, N-{4-[2-(diethylamino)ethoxy]benzyl}-N-{cis-4-[6-fluoro-1-{4′-[(4-isopropylpiperazin-1-yl)methyl]biphenyl-3-yl}-2,4-dioxo-1,4-dihydropyrido[2,3-d]pyrimidin-3 (2H)-yl]cyclohexyl}acetamide]: the IC50 is 1.58 nM.
As for `CN1CCCN(Cc2ccc(-c3cccc(-n4c(=O)n([C@H]5CC[C@@H](NC(=O)C(C)(C)N)CC5)c(=O)c5cc(F)cnc54)c3)cc2)CC1` [Example 311, N-{cis-4-[6-fluoro-1-{4′-[(4-methyl-1,4-diazepan-1-yl)methyl]biphenyl-3-yl}-2,4-dioxo-1,4-dihydropyrido[2,3-d]pyrimidin-3(2H)-yl]cyclohexyl}-2-methylalaninamide], the IC50 is 1 nM.
For `CC(=O)n1cc(CN[C@H]2CC[C@@H](n3c(=O)c4cc(F)cnc4n(-c4cccc(-c5ccc(CN6CCCOCC6)cc5)c4)c3=O)CC2)c2ccccc21` [Example 266, 3-(cis-4-{[(1-acetyl-1H-indol-3-yl)methyl]amino}cyclohexyl)-6-fluoro-1-[4′-(1,4-oxazepan-4-ylmethyl)biphenyl-3-yl] pyrido[2,3-d]pyrimidine-2,4(1H,3H)-dione], the IC50 is 1 nM.
Turning to `Cc1nc(C(=O)N[C@H]2CC[C@@H](n3c(=O)c4cc(F)cnc4n(-c4cccc(-c5ccc(CN6CCC(N7CCCCC7)CC6)cc5)c4)c3=O)CC2)cs1` [Example 357, N-{cis-4-[1-[4′-(1,4′-bipiperidin-1′-ylmethyl)biphenyl-3-yl]-6-fluoro-2,4-dioxo-1,4-dihydropyrido[2,3-d]pyrimidin-3(2H)-yl]cyclohexyl}-2-methyl-1,3-thiazole-4-carboxamide], the IC50 is 0.0316 nM.
Turning to `O=c1c2cc(F)cnc2n(-c2cccc(-c3ccccc3)c2)c(=O)n1[C@H]1CC[C@@H](NCCO)CC1` [Example 86, 1-biphenyl-3-yl-6-fluoro-3-{cis-4-[(2-hydroxyethyl)amino]cyclohexyl}pyrido[2,3-d]pyrimidine-2,4(1H,3H)-dione], the IC50 is 31.6 nM.
For `CN1CCCN(Cc2ccc(-c3cccc(-n4c(=O)n([C@H]5CC[C@@H](NC(=O)c6cc7ccccc7cn6)CC5)c(=O)c5cc(F)cnc54)c3)cc2)CC1` [Example 359, N-{cis-4-[6-fluoro-1-{4′-[(4-methyl-1,4-diazepan-1-yl)methyl]biphenyl-3-yl}-2,4-dioxo-1,4-dihydropyrido[2,3-d]pyrimidin-3(2H)-yl]cyclohexyl} isoquinoline-3-carboxamide] the value was 0.0251 nM; for `CN(Cc1ccccc1)C(=O)c1cccc(-n2c(=O)n([C@H]3CC[C@@H](NC(=O)c4cn5cc(F)ccc5n4)CC3)c(=O)c3cc(F)cnc32)c1` [Example 90, N-{cis-4-[1-(3-{[benzyl(methyl)amino]carbonyl}phenyl)-6-fluoro-2,4-dioxo-1,4-dihydropyrido[2,3-d]pyrimidin-3(2H)-yl]cyclohexyl}-6-fluoroimidazo[1,2-a]pyridine-2-carboxamide], 1.26 nM; for `O=C(N[C@H]1CC[C@@H](n2c(=O)c3cc(F)cnc3n(-c3cccc(-c4ccc(OCCCN5CCOCC5)cc4)c3)c2=O)CC1)c1cn2cc(F)ccc2n1` [Example 81, 6-fluoro-N-{cis-4-[6-fluoro-1-[4′-(3-morpholin-4-ylpropoxy)biphenyl-3-yl]-2,4-dioxo-1,4-dihydropyrido[2,3-d]pyrimidin-3(2H)-yl]cyclohexyl}imidazo[1,2-a]pyridine-2-carboxamide], 0.00631 nM.
Consider `CC(C)(C)OC(=O)N1CCN(Cc2ccc(-c3cccc(-n4c(=O)n([C@H]5CC[C@@H](NC(=O)c6cn7cc(F)ccc7n6)CC5)c(=O)c5cc(F)cnc54)c3)cc2)CC1` [Example 51], for which the IC50 is 0.0398 nM.
